{"source": "paper PMC9014651", "about": "(Bioorganic Chemistry, 2022)", "key": {"[1]": {"target": "T1, SARS-CoV-2 M^pro (Severe acute respiratory syndrome coronavirus 2, UniProt P0DTD1)", "assay": "IC50 measurement on M^pro", "type": "biochemical"}, "[2]": {"test_system": "M^pro", "conditions": "cited from earlier work"}, "[3]": {"target": "T1, SARS-CoV-2 M^pro", "assay": "FRET percent inhibition screening of M^pro inhibitors", "type": "biochemical", "conditions": "control experiments"}}, "note": "Where a SMILES comes first, the peptide text is derived from it."}
{"compound": "Cc1ccccc1NC(=S)N/N=C/c1ccccc1O", "note": "[2n, (E)-1-(2-hydroxybenzylidene)-4-o-tolylthiosemicarbazide]", "values": [{"measurement": "IC50", "setting": "[1]", "value": 20.7, "unit": "µM"}]}
{"compound": "O=c1c2ccccc2[se]n1-c1ccccc1", "note": "[Ebselen]", "values": [{"measurement": "Effect of binding on M^pro stability (thermal shift)", "setting": "[2]", "value": "destabilization"}, {"measurement": "Reversibility of M^pro inhibition", "setting": "[2]", "value": "irreversibly inhibit"}]}
{"compound": "O=c1c2ccccc2sn1-c1ccccc1", "note": "[Ebsulfur]", "values": [{"measurement": "Reversibility of M^pro inhibition", "setting": "[2]", "value": "irreversibly inhibit"}]}
{"compound": "CC(C)C[C@H](NC(=O)OCc1ccccc1)C(=O)N[C@@H](CC1CCNC1=O)C(O)S(=O)(=O)[O-].[Na+]", "note": "(stereo partly shown) [GC-376]", "values": [{"measurement": "IC50 value range (M^pro)", "setting": "[2]", "value": "single-digit to sub-micromolar"}]}
{"compound": "O=C(CC(c1ccccc1)c1ccccc1)NO", "note": "[N-hydroxy-3,3-diphenylpropanamide]", "values": [{"measurement": "Inhibitory effect on M^pro (control experiment)", "setting": "[3]", "value": "no inhibitory effect"}]}
{"compound": "CCCC(NC(=O)C(CC(C)C)NC(=O)OCc1ccccc1)C(=O)C(=O)NCc1ccccn1", "note": "(stereo not shown) [XII]", "values": [{"measurement": "IC50 value range (M^pro)", "setting": "[2]", "value": "single-digit to sub-micromolar"}]}
{"compound": "CC(C)(C)NC(=O)N[C@H](C(=O)N1C[C@H]2[C@@H]([C@H]1C(=O)NC(CC1CCC1)C(=O)C(N)=O)C2(C)C)C(C)(C)C", "note": "(stereo partly shown) [boceprevir]", "values": [{"measurement": "IC50 value range (M^pro)", "setting": "[2]", "value": "single-digit to sub-micromolar"}]}
{"compound": "CSCC[C@@H](C=O)NC(=O)[C@H](CC(C)C)NC(=O)[C@H](CC(C)C)NC(C)=O", "note": "[calpain inhibitors II] (Ac-Leu-Leu-Met-aldehyde)", "values": [{"measurement": "IC50 value range (M^pro)", "setting": "[2]", "value": "single-digit to sub-micromolar"}]}
{"compound": "CCN(CC)C(=S)SSC(=S)N(CC)CC", "note": "[disulfiram]", "values": [{"measurement": "Effect of binding on M^pro stability (thermal shift)", "setting": "[2]", "value": "destabilization"}]}
